Assay results from patent EP4707280A1, “1,4-CINEOLE DERIVATIVE AND INTERMEDIATE THEREOF, HERBICIDE CONTAINING SAID DERIVATIVE AS ACTIVE INGREDIENT, METHOD FOR USING HERBICIDE, AND METHOD FOR PREPARING AGROCHEMICAL COMPOSITION” (HOKKO CHEMICAL INDUSTRY CO., LTD., priority 2023, dated 2024).

Key:
Type in all cases: in vivo
Digitaria ciliaris [1] = assay: Test Example 4: herbicidal effect test by stem and leaf treatment in upland field; conditions: Digitaria ciliaris; 120 g per 10 ares; sprayed seven days after sowing, upland soil; 14 days after application; read-out: weed inhibition rate
Amaranthus viridis [2] = assay: Test Example 7: herbicidal effect test by soil application in upland field (low dose); conditions: 7.5 g per 10 ares, sprayed one day after sowing, upland soil, 14 days after application, read-out: weed inhibition rate
Echinochloa crus-galli [3] = assay: Test Example 8: herbicidal effect test by stem and leaf treatment in upland field (low dose); conditions: Echinochloa crus-galli; 7.5 g per 10 ares; sprayed seven days after sowing, upland soil; 14 days after application; read-out: weed inhibition rate
Echinochloa crus-galli [4] = assay: Test Example 7: herbicidal effect test by soil application in upland field (low dose); conditions: Echinochloa crus-galli, 7.5 g per 10 ares, sprayed one day after sowing, 14 days after application, read-out: weed inhibition rate
In short: (§1)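 Duplicate pots of alluvial loam, seeds incorporated in the surface 1 cm. Soil surface sprayed 1 d after sowing (EC in water, 100 L/10 a; 7.5 g a.i./10 a). Endpoint: % inhibition, day 14.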

Digitaria ciliaris [5] = assay: Test Example 3: herbicidal effect test by soil application in upland field; conditions: Digitaria ciliaris, 120 g per 10 ares, sprayed one day after sowing, 14 days after application, read-out: weed inhibition rate
In short: (§2)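 Weed inhibition (%) was assessed 14 days after treatment, in duplicate per concentration group. Seeds had been mixed into the upper 1 cm of upland alluvial loam, and the soil surface was sprayed one day later with the diluted emulsifiable concentrate at 120 g active ingredient per 10 ares.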

Amaranthus viridis [6] = assay: as above; conditions: Amaranthus viridis, 120 g per 10 ares, sprayed one day after sowing, 14 days after application, read-out: weed inhibition rate
In short: as §2

Echinochloa crus-galli [7] = assay: as above; conditions: Echinochloa crus-galli, 120 g per 10 ares, sprayed one day after sowing, 14 days after application, read-out: weed inhibition rate
In short: as §2

Chenopodium album = assay: as above; conditions: 120 g per 10 ares, sprayed one day after sowing, 14 days after application, read-out: weed inhibition rate
In short: as §2

Scirpus juncoides [8] = assay: Test Example 5: herbicidal effect test by soil application in paddy rice (low dose); conditions: Schoenoplectiella juncoides, 336 h, 7.5 g per 10 ares, applied immediately after sowing, flooded pots, 14 days after application, read-out: weed inhibition rate
Protocol: The present test was conducted in duplicate for each chemical concentration group, and the weed inhibition rate (%) was determined 14 days after chemical application using the following formula (Math. 1). [formula]
Wagner pots with an area of […] were filled with paddy soil, followed by addition of water and incorporation of chemical fertilizer (N:P:K = 16:16:16), after which puddling was performed. After that, seeds of Echinochloa crus-galli var. formosensis, broad-leaved weeds (Monochoria vaginalis), and Scirpus juncoides were sown at a depth of 0 cm to 1 cm, 30 seeds each. Immediately after sowing, the pots were flooded and a water depth of approximately 3 cm was maintained. Subsequent management was conducted in a glass greenhouse. Immediately thereafter, an emulsifiable concentrate prepared according to Formulation Example 5 using the compound shown below was diluted with water, and a specified amount of the diluted solution was applied by dropper. The amount of the active ingredient to be applied was equivalent to 7.5 g per 10 ares.
The present test was conducted in duplicate for each chemical concentration group, and the herbicidal effect was evaluated 14 days after chemical application using the same criteria as in Test Example 1.

[9] = test system: Echinochloa crus-galli var. formosensis; assay: Test Example 2: herbicidal effect test by application during growth period of paddy rice; conditions: Echinochloa crus-galli; 120 g per 10 ares; applied seven days after sowing, flooded pots; 14 days after application; read-out: weed inhibition rate
In short: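 Greenhouse pots of flooded paddy soil, seeded shallowly with 30 seeds per weed, are treated on day 7 by dropper with diluted emulsifiable concentrate equal to 120 g a.i./10 a. Duplicate pots are scored for inhibition rate 14 days post-application.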

Scirpus juncoides [10] = assay: Test Example 1: herbicidal effect test by soil application in paddy rice; conditions: Schoenoplectiella juncoides, soil, 336 h; 120 g active ingredient per 10 ares; applied immediately after sowing, flooded pots; 14 days after application; read-out: weed inhibition rate
In short: (§3)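 Treatment: 120 g active ingredient per 10 ares as a water-diluted emulsifiable concentrate, dropped onto flooded pots immediately after sowing. Thirty seeds per species went 0–1 cm into puddled paddy soil with 16:16:16 fertilizer, with ~3 cm flooding maintained in a glass greenhouse.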

[11] = test system: Echinochloa crus-galli var. formosensis; assay: as above; conditions: Echinochloa crus-galli, soil, 336 h; 120 g active ingredient per 10 ares; applied immediately after sowing, flooded pots; 14 days after application; read-out: weed inhibition rate
In short: as §3

Echinochloa crus-galli [12] = assay: Test Example 4: herbicidal effect test by stem and leaf treatment in upland field; conditions: Echinochloa crus-galli; 120 g per 10 ares; sprayed seven days after sowing, upland soil; 14 days after application; read-out: weed inhibition rate
[13] = test system: Echinochloa crus-galli var. formosensis; assay: Test Example 5: herbicidal effect test by soil application in paddy rice (low dose); conditions: Echinochloa crus-galli, soil, 336 h; 7.5 g per 10 ares; applied immediately after sowing, flooded pots; 14 days after application; read-out: weed inhibition rate
In short: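 7.5 g a.i./10 a applied by dropper into ~3 cm floodwater immediately post-sowing (seeds 0–1 cm, 30 per species; puddled fertilized paddy soil, glasshouse). Duplicates; day-14 inhibition %.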

Digitaria ciliaris [14] = assay: Test Example 7: herbicidal effect test by soil application in upland field (low dose); conditions: Digitaria ciliaris, 7.5 g per 10 ares, sprayed one day after sowing, 14 days after application, read-out: weed inhibition rate
In short: as §1

[15] = test system: Echinochloa crus-galli var. formosensis; assay: Test Example 6: herbicidal effect test by application during growth period of paddy rice (low dose); conditions: Echinochloa crus-galli; 7.5 g per 10 ares; applied seven days after sowing, flooded pots; 14 days after application; read-out: weed inhibition rate
In short: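 Puddled, fertilised paddy soil was sown with 30 seeds per species and flooded to about 3 cm. After 7 days in a glass greenhouse, the diluted emulsifiable concentrate went into the water by dropper at 7.5 g/10 a. Effect scored at 14 days.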

CC(C)[C@]12C[C@@H](OCc3ccccc3C(F)(F)F)[C@](C)(CC1=O)O2 [2-29, (1R,4S,5R)-1-isopropyl-4-methyl-5-((2-(trifluoromethyl)benzyl)oxy)-7-oxabicyclo[2.2.1]heptan-2-one]
≥ 80%: inhibition at 1200 g/ha (Digitaria ciliaris [1]) | inhibition at 75 g/ha (Amaranthus viridis [2]) | inhibition at 75 g/ha (Echinochloa crus-galli [3]) | inhibition at 75 g/ha (Echinochloa crus-galli [4]) | inhibition at 1200 g/ha (Digitaria ciliaris [5]) | inhibition at 1200 g/ha (Amaranthus viridis [6]) | inhibition at 1200 g/ha (Echinochloa crus-galli [7]) | inhibition at 1200 g/ha (Chenopodium album) | inhibition at 75 g/ha (Scirpus juncoides [8]) | inhibition at 1200 g/ha [9] | pest or weed control at 1200 g/ha (Scirpus juncoides [10]) | pest or weed control at 1200 g/ha [11] | inhibition at 1200 g/ha (Echinochloa crus-galli [12]) | inhibition at 75 g/ha [13]

CC(C)[C@]12C[C@@H](OCc3ccccc3F)[C@](C)(C[C@H]1O)O2 [1-68, (1R,2R,4S,5R)-5-[(2-fluorophenyl)methoxy]-4-methyl-1-isopropyl-7-oxabicyclo[2.2.1]heptan-2-ol]
≥ 80%: inhibition at 75 g/ha (Amaranthus viridis [2]) | inhibition at 75 g/ha (Echinochloa crus-galli [3]) | inhibition at 75 g/ha (Digitaria ciliaris [14]) | inhibition at 75 g/ha (Echinochloa crus-galli [4]) | inhibition at 1200 g/ha (Digitaria ciliaris [5]) | inhibition at 1200 g/ha (Amaranthus viridis [6]) | inhibition at 1200 g/ha (Echinochloa crus-galli [7]) | inhibition at 75 g/ha [15] | inhibition at 1200 g/ha [9] | pest or weed control at 1200 g/ha [11] | inhibition at 1200 g/ha (Echinochloa crus-galli [12]) | inhibition at 75 g/ha [13]
